Where “and” joins values, the source holds several entries; their conditions need not be identical. Equal entries are not always repeated.
What was measured:
[1] = test system: Draining Lymph Nodes (LNs) from the Normal Breast Tissue; experiment: Dynamic micro-MR mammo-lymphangiography after injection into normal mammary gland (Example 1); assay type: in vivo, mice
Procedure: Mice were anesthetized with 1.15 mg sodium pentobarbital (Dainabot, Osaka, Japan), and then injected with 0.15-0.24 μmol Gd/5-8 μL of the PAMAM-G6 contrast agent into normal mammary glands or mammary tissue surrounding a tumor (peritumorally). Dynamic micro-MR images were obtained using a 1.5-Tesla superconductive magnet unit (Signa LX, General Electric Medical System, Milwaukee, Wis.) with a birdcage type coil of 3 cm diameter fixed by a custom made coil holder. Single and double “breast coils” used for imaging breasts in humans are commercially available, for example, from GE Medical Systems (Milwaukee, Wis.) and are routinely available in outpatient MRI centers. The mice were wrapped with gauze to stabilize their body temperature and were placed at the center of the coils.
In order to evaluate the lymphatic drainage from the normal mammary gland of either Balb/c mice (n=5) or athymic nu/nu mice (n=5), 3D-fast spoiled gradient echo (3D-fastSPGR (efgre3d package; Signa Horizon, GE); repetition time/echo time 19.2/7.2 msec; inversion time 47 msec; 31.2 kHz, flip angle 30°, 4 excitations; 36 slice encoding steps; scan time 4 min 49 seconds) with chemical shift fat-suppression was used 6, 12, 18, 24, 30, 36, 42, and 48 min after injection of the contrast agent. The coronal images were reconstructed with 0.6-mm section thickness every 0.3-mm. The field of view was 8×4 cm and the size of the matrix was 512×256. The slice data were processed into 3D images using the maximum intensity projection (MIP) method with the same window and level (window 3500 and level 2100) (Advantage Windows, General Electric Medical System). After imaging, the mice were sacrificed by carbon dioxide inhalation.
Athymic nu/nu mice (n=4) were anesthetized and injected with 0.15 μmol Gd of GPDM into the mammary gland, and images were taken 12, 24, and 36 min after injection. Following these three images, these mice were subsequently injected with 0.15 μmol Gd of PAMAM-G6 contrast agent in the mammary gland, and images were taken at 12 and 24 min post-injection of the PAMAM-G6 contrast agent (at 48 and 60 min post-injection of GPDM).

[2] = test system: lymphatic drainage from tumor-bearing mammary glands; experiment: MR mammo-lymphangiography in breast tumor models (BALB-neuT, PT-18 xenograft); assay type: in vivo, mice
Description: The breast-tumor bearing mice were thirty one week-old BALB-neuT mice (n=3) transgenic for the rat HER-2/neu (Erb B2) oncogene under the control of the mouse mammary tumor virus promotor (MMTV). […] BALB-neuT mice were used because of their spontaneous development of bilateral breast cancers and lymph node metastases. Heterozygous female BALB-neuT mice (BALB/c background) develop mammary gland lobule hyperplasia at 5-6 weeks of age that progresses to atypical hyperplasia by 8-9 weeks, followed by in situ carcinoma by 14 weeks, becoming invasive carcinoma usually by 21 week of age. Rovero et al., J. Immunol.; 165:5133-42, 2000. Most metastatic lymph nodes from the mouse mammary pad localize in the neck, lateral thoracic, or axillary region.
Tumor xenografts of PT-18, a murine mast cell line, were introduced into the left mammary pad in athymic nu/nu mice. When 10^7 PT-18 cells were injected in the left mammary pad of 10 athymic nu/nu mice, six mice developed tumor masses in the left axillary lymph nodes within three weeks.
Mice were anesthetized with 1.15 mg sodium pentobarbital (Dainabot, Osaka, Japan), and then injected with 0.15-0.24 μmol Gd/5-8 μL of the PAMAM-G6 contrast agent into normal mammary glands or mammary tissue surrounding a tumor (peritumorally). Dynamic micro-MR images were obtained using a 1.5-Tesla superconductive magnet unit (Signa LX, General Electric Medical System, Milwaukee, Wis.) with a birdcage type coil of 3 cm diameter fixed by a custom made coil holder. Single and double “breast coils” used for imaging breasts in humans are commercially available, for example, from GE Medical Systems (Milwaukee, Wis.) and are routinely available in outpatient MRI centers. The mice were wrapped with gauze to stabilize their body temperature and were placed at the center of the coils. […]

[3] = Serum phantoms: T1-weighted MRI signal intensity vs G6 agent concentration; assay type: physicochemical; conditions: FIG. 21B
Description: In order to verify the correlation between T1-weighted MRI signal intensity and concentration of G6 agent, serum phantoms were made containing various concentrations of the G6 agent with a bovine serum (GIBCO, Invitrogen Co., Carlsbad, Calif.) and MR images were obtained with the same imaging technique as shown above. Three sets of phantoms, high ([…]-40 mMGd), intermediate (0.1-1 mMGd) and low (0.01-0.1 mMGd) concentrations, were studied. A sample of Gd-DTPA was used as an internal control.

[4] = PT-18 model, peritumoral injection

For “PAMAM-G6D-(Gd-1B4M)256 dendrimer conjugate”, the “Visualized LNs/Total Examined LNs, Axillary LN” value ([1]; 6 min after injection) was “visualized at the initial (6 min) time point in all 10 mice and 10/10”, the “Visualized LNs/Total Examined LNs, Lateral thoracic LN” value ([1]; 6 min after injection) was 0/10 and the “Visualized LNs/Total Examined LNs, Superficial cervical LN” value ([1]; 6 min after injection) was 1/10. For the same substance, the “Visualized LNs/Total Examined LNs, Axillary LN” value ([1]; 12 min after injection) was 10/10, the “Visualized LNs/Total Examined LNs, Lateral thoracic LN” value ([1]; 12 min after injection) was 1/10 and the “Visualized LNs/Total Examined LNs, Superficial cervical LN” value ([1]; 12 min after injection) was 1/10. For the same substance, the “Visualized LNs/Total Examined LNs, Axillary LN” value ([1]; 18 min after injection) was 10/10, the “Visualized LNs/Total Examined LNs, Lateral thoracic LN” value ([1]; 18 min after injection) was 2/10 and the “Visualized LNs/Total Examined LNs, Superficial cervical LN” value ([1]; 18 min after injection) was 1/10. For the same substance, the “Visualized LNs/Total Examined LNs, Axillary LN” value ([1]; 24 min after injection) was 10/10, the “Visualized LNs/Total Examined LNs, Lateral thoracic LN” value ([1]; 24 min after injection) was 4/10 and the “Visualized LNs/Total Examined LNs, Superficial cervical LN” value ([1]; 24 min after injection) was 2/10. The “Visualized LNs/Total Examined LNs, Axillary LN” value ([1]; 30 min after injection) was 10/10, the “Visualized LNs/Total Examined LNs, Lateral thoracic LN” value ([1]; 30 min after injection) was 4/10 and the “Visualized LNs/Total Examined LNs, Superficial cervical LN” value ([1]; 30 min after injection) was 2/10. The “Visualized LNs/Total Examined LNs, Axillary LN” value ([1]; 36 min after injection) was 10/10, the “Visualized LNs/Total Examined LNs, Lateral thoracic LN” value ([1]; 36 min after injection) was 5/10 and the “Visualized LNs/Total Examined LNs, Superficial cervical LN” value ([1]; 36 min after injection) was 3/10. The “Visualized LNs/Total Examined LNs, Axillary LN” value ([1]; 42 min after injection) was 10/10, the “Visualized LNs/Total Examined LNs, Lateral thoracic LN” value ([1]; 42 min after injection) was 6/10 and the “Visualized LNs/Total Examined LNs, Superficial cervical LN” value ([1]; 42 min after injection) was 3/10. The “Visualized LNs/Total Examined LNs, Axillary LN” value ([1]; 48 min after injection) was 10/10, the “Visualized LNs/Total Examined LNs, Lateral thoracic LN” value ([1]; 48 min after injection) was 6/10 and the “Visualized LNs/Total Examined LNs, Superficial cervical LN” value ([1]; 48 min after injection) was 3/10. For the same substance, the “Visualization of draining lymph nodes and lymphatic vessels (FIG. 5)” value ([1]; athymic nu/nu mice, 0.15 μmol Gd into the mammary gland, GPDM imaged at 12, 24, 36 min, then PAMAM-G6) was “clearly visualized”, the “Imaging of enlarged metastatic lymph nodes and dilated lymphatic vessels” value ([2]; BALB-neuT model) was “clearly imaged” and the “Enhancement of axillary lymph node tissue with metastatic tumor cells” value [2, 4] was “did not shown enhancement”. For the same substance, the “Lymphatic vessel flowing into the lymph node with a metastatic tumor” value [2, 4] was “dilated and showed enhancement” and the T1 relaxivity [3] was “much higher T1 relaxivity than Gd-DTPA”.

— patent US20060204443A1, “Methods for tumor treatment using dendrimer conjugates” (The Government of the USA as represented by the Secretary …, priority 2005, published 2006)
